Assays:
[1] = system: Du145 prostate cancer cells
[2] = system: RWPE benign prostate cells
[3] = system: PCAT-14 expression in VCaP and LNCaP cells; assay: Androgen treatment (R1881), ncRNA expression by qPCR; format: cell-based, human; conditions: 5 nM R1881, androgen responsive VCaP and LNCaP cells
From the text: The benign immortalized prostate cell line RWPE as well as PC3, Du145, LNCaP, VCaP, 22Rv1, CWR22, C4-2B, NCI-660, MDA PCa 2b, WPMY-1, and LAPC-4 prostate cell lines were obtained from the American Type Culture Collection (Manassas, Va.). Benign non-immortalized prostate epithelial cells (PrEC) and prostate smooth muscle cells (PrSMC) were obtained from Lonza (Basel, Switzerland). Cell lines were maintained using standard media and conditions. For androgen treatment experiments, LNCaP and VCaP cells were grown in androgen depleted media lacking phenol red and supplemented with 10% charcoal-stripped serum and 1% penicillin-streptomycin. After 48 hours, cells were treated with 5 nM methyltrienolone (R1881, NEN Life Science Products) or an equivalent volume of ethanol. Cells were harvested for RNA at 6, 24, and 48 hours post-treatment. Prostate tissues were obtained from the radical prostatectomy series and Rapid Autopsy Program at the University of Michigan tissue core. These programs are part of the University of Michigan Prostate Cancer Specialized Program Of Research Excellence (S.P.O.R.E.). […]
Quantitative Real-time PCR (qPCR) was performed using Power SYBR Green Mastermix (Applied Biosystems, Foster City, Calif.) on an Applied Biosystems 7900HT Real-Time PCR System. […] Fold changes were calculated relative to GAPDH and normalized to the median value of the benign samples.

`C[C@]1(c2nc3c(C(N)=O)cccc3[nH]2)CCCN1` [ABT-888] was tested, and the “sensitivity to PARP1 inhibitor” value [1] was “increases sensitivity”, the “sensitivity to PARP1 inhibitor” value [2] was “increases sensitivity” and the “sensitivity to PARP1 inhibitor” value (LNCAP prostate cells) was “reduces sensitivity”. The “sensitivity to PARP1 inhibitor” value (MCF7 breast cancer cells) was “does not recapitulate this effect”.

In the case of `C[C@]1(O)CC[C@H]2[C@@H]3CCC4=CC(=O)CCC4=C3C=C[C@@]21C` [R1881, methyltrienolone], the PCAT-14 expression [3] was “induced”.
